# Laboratory results: US20020103120A1, “Regulation of human phosphodiesterase-like enzyme” (priority 2000, published 2002)
# Where “and” joins values, the source holds several entries; their conditions need not be identical. Equal entries are not always repeated.
# Columns and labels:
# [1] = system: human PDE-like enzyme; assay: Expression of human PDE-like enzyme by Western blotting in oligonucleotide-treated HCT116 cells; type: cell-based; settings: HCT116, oligonucleotide added for seven days
# Protocol: The cell line used for testing is the human colon cancer cell line HCT116. Cells are cultured in RPMI-1640 with 10-15% fetal calf serum at a concentration of 10,000 cells per milliliter in a volume of 0.5 ml and kept at 37° C. in a 95% air/5%CO2 atmosphere.
# Phosphorothioate […] are synthesized on an Applied Biosystems Model 380B DNA synthesizer using phosphoroamidite chemistry. A sequence of 24 bases complementary to the nucleotides at position 1 to 24 of SEQ ID NO: 1 is used as the test oligonucleotide. As a control, another (random) sequence is used: 5′-TCAACTGACTAGATGTACATGGAC-3′. Following assembly and deprotection, oligonucleotides are ethanol-precipitated twice, dried, and suspended in phosphate buffered saline at the desired concentration. Purity of the oligonucleotides is tested by capillary gel electrophoresis and ion exchange HPLC. The purified oligonucleotides are added to the culture medium at a concentration of […] once per day for seven days.
# This effect is not observed with the control oligonucleotide. After 3 to 7 days, the number of cells in the cultures is counted using an automatic cell counter. The number of cells in cultures treated with the test oligonucleotide (expressed as 100%) is compared with the number of cells in cultures treated with the control oligonucleotide.
# [2] = target: T1, PDE11A4 (Homo sapiens, UniProt Q9HCR9); assay: Lineweaver-Burk analysis of PDE11A4 SPA to determine Km for cGMP; type: biochemical; settings: 1 ng PDE11A4, various cGMP concentrations, RT, 0-90 min
# T1 construct: His-tag (N); made in house; host or cells: Sf21 insect cells (baculovirus)
# T1 sequence (Q9HCR9 whole entry): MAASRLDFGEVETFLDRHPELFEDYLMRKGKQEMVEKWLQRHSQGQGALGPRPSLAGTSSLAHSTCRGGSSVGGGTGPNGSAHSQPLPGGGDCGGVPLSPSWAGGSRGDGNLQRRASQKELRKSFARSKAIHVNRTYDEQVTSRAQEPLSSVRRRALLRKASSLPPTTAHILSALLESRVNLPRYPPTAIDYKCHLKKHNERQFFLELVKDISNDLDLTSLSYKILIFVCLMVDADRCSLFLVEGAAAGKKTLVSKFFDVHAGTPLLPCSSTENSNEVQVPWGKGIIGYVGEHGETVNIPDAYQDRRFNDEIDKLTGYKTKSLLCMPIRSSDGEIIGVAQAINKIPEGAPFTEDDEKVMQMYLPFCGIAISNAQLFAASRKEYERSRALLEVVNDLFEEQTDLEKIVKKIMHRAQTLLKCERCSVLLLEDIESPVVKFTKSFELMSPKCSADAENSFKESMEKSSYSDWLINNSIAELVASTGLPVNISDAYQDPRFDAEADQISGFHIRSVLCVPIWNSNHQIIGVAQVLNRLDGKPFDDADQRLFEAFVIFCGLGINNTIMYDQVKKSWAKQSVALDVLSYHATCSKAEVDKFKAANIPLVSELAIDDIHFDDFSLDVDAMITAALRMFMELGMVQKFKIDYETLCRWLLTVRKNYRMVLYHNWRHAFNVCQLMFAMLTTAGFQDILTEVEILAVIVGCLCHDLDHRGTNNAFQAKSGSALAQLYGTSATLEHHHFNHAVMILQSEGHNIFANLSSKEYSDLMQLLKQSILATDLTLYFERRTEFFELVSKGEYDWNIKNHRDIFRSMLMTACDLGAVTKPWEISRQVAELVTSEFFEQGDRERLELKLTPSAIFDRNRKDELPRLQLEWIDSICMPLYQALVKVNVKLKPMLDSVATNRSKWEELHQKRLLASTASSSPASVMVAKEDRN
# Protocol: FIG. 17. Lineweaver-Burk analysis to determine Km values for cGMP. Reaction mixtures (20 μl/well) containing 1 ng PDE11A4 and various concentrations of cGMP (1.25 mCi/μmol) were incubated at RT. At various time points between 0 and 90 min the reactions were stopped with 30 μl of 18 mM ZnSO4 containing 0.15 mg Yttrium SPA PDE beads. The assay plates were sealed, allowed to settle for 30 min at RT, and counted on a TopCount NTX microscintillation counter (Packard). Reactions were run in triplicate. A, Time courses of PDE11A4 reaction with various concentration of cGMP. B, Lineweaver-Burk analysis. The Km value for cGMP was determined as 0.4 μM.
# Expression of recombinant PDE11A4 was examined by baculovirus expression system in Sf21 cells with or without His-tag at the N-terminus. Since both expression level and enzyme activity of the His-tagged PDE11A4 (His-PDE11A4) was much higher than those of non-tagged enzyme (FIG. 15), His-PDE11A4 was selected for further use. The maximum expression level and activity were obtained from the cells cultured 24 to 48 h after transfection. The His-PDE11A4 was successfully purified by Ni^2+-chelating column chromatography (FIG. 16). The assay was carried out in scintillation proximity assay (SPA) using cGMP as substrate. Km value for cGMP was determined to be 0.4 μM (FIG. 17). […]
# [3] = target: T1, PDE11A4; assay: PDE11A4 scintillation proximity assay (SPA), inhibition of [3H]-cGMP hydrolysis; type: biochemical; settings: 0.4 μM [3H]-cGMP, 1 ng PDE11A4, RT 1 h, His-tagged recombinant enzyme
# Protocol: Effect of IBMX and dipyridamole was tested. Assays were performed in 384-well white plates in 20 μl containing the indicated concentration of inhibitor, 0.4 μM [^3H]-cGMP (0.025 μCi/well) and 1 ng PDE11A4 in 50 mM Tris-HCl, pH 7.5, 8.3 mM MgCl2, 1.7 mM EGTA, 0.5 mg/ml BSA. Reaction mixtures were incubated at RT for 1 h, then quenched with 30 μl of 18 mM ZnSO4 containing 0.15 mg Yttrium SPA PDE beads. The assay plates were sealed, allowed to settle for 30 min at RT, and counted on a TopCount NTX microscintillation counter (Packard). Reactions were run in triplicate.
molecule,measurement,setting,value
control oligonucleotide: control (random) sequence 5′-TCAACTGACTAGATGTACATGGAC-3′ (DNA TCAACTGACTAGATGTACATGGAC; chemistry not given here),expression of human PDE-like enzyme (Western blotting),[1],not observed
Nc1nc2c(ncn2[C@@H]2O[C@@H]3COP(=O)(O)O[C@H]3[C@H]2O)c(=O)[nH]1 [cGMP],Km,[2],400 nM
CC(C)Cn1c(=O)n(C)c(=O)c2[nH]cnc21 [IBMX],IC50,[3],41 µM and 41.3 µM
